# Laboratory results: PubChem BioAssay AID220 (DTP/NCI, 2004)
# Several values for one entry are separate records, joined by “and”; a condition that tells them apart may be missing. Equal entries are not always repeated. Records with an inconclusive call do not appear.
# Test system: CD8F1 mice, subcutaneous mammary adenocarcinoma, T/C%
# Experiment: NCI In Vivo Anticancer Drug Screen. Data for tumor model Mammary Adenocarcinoma CD8F1 (subcutaneous) in CD8F1
# Conditions: higher = larger tumour
# Method in brief: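 Compound-treated versus vehicle-treated mice with transplantable tumors; survival or tumor size compared as T/C.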
structure (smiles),measurement,setting,value
Cc1ccc(C2NC(=O)c3ccccc3N2)s1 (centres undefined),T/C,"endpoint: mean tumor weight, dose: 25.0 mg/kg/injection, schedule: Q07DX005 (ip), vehicle: Klucel (hydroxypropylcellulose) (HPC)",82 % of control
same,T/C,"endpoint: mean tumor weight, dose: 50.0 mg/kg/injection, schedule: Q07DX005 (ip), vehicle: Klucel (hydroxypropylcellulose) (HPC)",88 % of control
same,T/C,"endpoint: mean tumor weight, dose: 100.0 mg/kg/injection, schedule: Q07DX005 (ip), vehicle: Klucel (hydroxypropylcellulose) (HPC)",106 % of control
same,T/C,"endpoint: mean tumor weight, dose: 200.0 mg/kg/injection, schedule: Q07DX005 (ip), vehicle: Klucel (hydroxypropylcellulose) (HPC)",105 % of control
same,T/C,"endpoint: mean tumor weight, dose: 400.0 mg/kg/injection, schedule: Q07DX005 (ip), vehicle: Klucel (hydroxypropylcellulose) (HPC)",123 % of control
same,T/C,"endpoint: median tumor weight (est.), dose: 12.5 mg/kg/injection, schedule: Q07DX005 (ip), vehicle: Klucel (hydroxypropylcellulose) (HPC)",78 % of control
same,T/C,"endpoint: median tumor weight (est.), dose: 25.0 mg/kg/injection, schedule: Q07DX005 (ip), vehicle: Klucel (hydroxypropylcellulose) (HPC)",14 % of control
same,T/C,"endpoint: median tumor weight (est.), dose: 50.0 mg/kg/injection, schedule: Q07DX005 (ip), vehicle: Klucel (hydroxypropylcellulose) (HPC)",110 % of control
CC[C@@]1(O)C[C@H](OC2CC(N(C)C)C(OC3CC(O)C(OC4CCC(=O)C(C)O4)C(C)O3)C(C)O2)c2c(cc3c(c2O)C(=O)c2c(O)cccc2C3=O)[C@H]1C(=O)OC (some centres undefined),T/C,"endpoint: mean tumor weight, dose: 0.75 mg/kg/injection, schedule: Q01DX009 (ip), vehicle: saline",108 % of control
same,T/C,"endpoint: mean tumor weight, dose: 1.5 mg/kg/injection, schedule: Q01DX009 (ip), vehicle: saline",75 % of control
same,T/C,"endpoint: mean tumor weight, dose: 3.0 mg/kg/injection, schedule: Q01DX009 (ip), vehicle: saline",35 % of control
same,T/C,"endpoint: mean tumor weight, dose: 6.0 mg/kg/injection, schedule: Q01DX009 (ip), vehicle: saline",5 % of control
same,T/C,"endpoint: median tumor weight (est.), dose: 2.97 mg/kg/injection, schedule: Q07DX005 (ip), vehicle: water",122 % of control
same,T/C,"endpoint: median tumor weight (est.), dose: 4.45 mg/kg/injection, schedule: Q07DX005 (ip), vehicle: water",87 % of control
same,T/C,"endpoint: median tumor weight (est.), dose: 6.67 mg/kg/injection, schedule: Q07DX005 (ip), vehicle: water",92 % of control
same,T/C,"endpoint: median tumor weight (est.), dose: 10.0 mg/kg/injection, schedule: Q07DX005 (ip), vehicle: water",61 % of control
same,T/C,"endpoint: median tumor weight (est.), dose: 15.0 mg/kg/injection, schedule: Q07DX005 (ip), vehicle: water",11 % of control
COc1ccc(S(=O)(=O)N=N/C=C2\C=CC=CN2O)cc1OC,T/C,"endpoint: median tumor weight change, dose: 31.25 mg/kg/injection, schedule: Q01DX001 (ip), vehicle: saline with Tween-80",60 % of control
same,T/C,"endpoint: median tumor weight change, dose: 62.5 mg/kg/injection, schedule: Q01DX001 (ip), vehicle: saline with Tween-80",87 % of control
same,T/C,"endpoint: median tumor weight change, dose: 250.0 mg/kg/injection, schedule: Q01DX001 (ip), vehicle: saline with Tween-80",106 % of control
Nc1ccn(C2OC(CO)C(O)C2O)c(=O)n1 (centres undefined),T/C,"endpoint: mean tumor weight, dose: 18.75 mg/kg/injection, schedule: Q01DX009 (ip), vehicle: saline",84 % of control
same,T/C,"endpoint: mean tumor weight, dose: 25.0 mg/kg/injection, schedule: Q07DX007 (ip), vehicle: saline",101 % of control
same,T/C,"endpoint: mean tumor weight, dose: 37.5 mg/kg/injection, schedule: Q01DX009 (ip), vehicle: saline",39 % of control
same,T/C,"endpoint: mean tumor weight, dose: 75.0 mg/kg/injection, schedule: Q07DX005 (ip), vehicle: saline",89 % of control
same,T/C,"endpoint: mean tumor weight, dose: 75.0 mg/kg/injection, schedule: Q07DX007 (ip), vehicle: saline",98 % of control
same,T/C,"endpoint: mean tumor weight, dose: 150.0 mg/kg/injection, schedule: Q07DX005 (ip), vehicle: saline",89 % of control
same,T/C,"endpoint: mean tumor weight, dose: 300.0 mg/kg/injection, schedule: Q07DX005 (ip), vehicle: saline",100 % of control
same,T/C,"endpoint: median tumor weight (est.), dose: 75.0 mg/kg/injection, schedule: Q04DX005 (ip), vehicle: saline",31 % of control and 55 % of control
same,T/C,"endpoint: median tumor weight (est.), dose: 130.0 mg/kg/injection, schedule: Q07DX005 (ip), vehicle: saline",79 % of control
same,T/C,"endpoint: median tumor weight (est.), dose: 150.0 mg/kg/injection, schedule: Q04DX005 (ip), vehicle: saline",50 % of control and 53 % of control
same,T/C,"endpoint: median tumor weight (est.), dose: 150.0 mg/kg/injection, schedule: Q07DX004 (ip), vehicle: saline",22 % of control and 41 % of control
same,T/C,"endpoint: median tumor weight (est.), dose: 200.0 mg/kg/injection, schedule: Q07DX005 (ip), vehicle: saline",73 % of control
same,T/C,"endpoint: median tumor weight (est.), dose: 300.0 mg/kg/injection, schedule: Q07DX005 (ip), vehicle: saline",48 % of control
same,T/C,"endpoint: median tumor weight (est.), dose: 450.0 mg/kg/injection, schedule: Q07DX005 (ip), vehicle: saline",75 % of control
same,T/C,"endpoint: median tumor weight (est.), dose: 600.0 mg/kg/injection, schedule: Q07DX005 (ip), vehicle: saline with Tween-80",34 % of control and 45 % of control
same,T/C,"endpoint: median tumor weight (est.), dose: 790.0 mg/kg/injection, schedule: Q01DX001 (ip), vehicle: saline",74 % of control
same,T/C,"endpoint: median tumor weight (est.), dose: 1180.0 mg/kg/injection, schedule: Q01DX001 (ip), vehicle: saline",54 % of control
same,T/C,"endpoint: median tumor weight (est.), dose: 1200.0 mg/kg/injection, schedule: Q07DX005 (ip), vehicle: saline with Tween-80",6 % of control and 18 % of control
same,T/C,"endpoint: median tumor weight (est.), dose: 1750.0 mg/kg/injection, schedule: Q01DX001 (ip), vehicle: saline",54 % of control
same,T/C,"endpoint: median tumor weight (est.), dose: 2500.0 mg/kg/injection, schedule: Q01DX001 (ip), vehicle: saline",62 % of control
same,T/C,"endpoint: median tumor weight change, dose: 790.0 mg/kg/injection, schedule: Q01DX001 (ip), vehicle: water",48 % of control
same,T/C,"endpoint: median tumor weight change, dose: 1180.0 mg/kg/injection, schedule: Q01DX001 (ip), vehicle: water",77 % of control
same,T/C,"endpoint: median tumor weight change, dose: 1750.0 mg/kg/injection, schedule: Q01DX001 (ip), vehicle: water",57 % of control
same,T/C,"endpoint: median tumor weight change, dose: 2500.0 mg/kg/injection, schedule: Q01DX001 (ip), vehicle: water",33 % of control
